Results on 1 compound are retold here after patent US12403142B2, “Combination therapy with a phosphoinositide 3-kinase inhibitor with a zinc binding moiety” (Curis, Inc., priority 2018, dated 2025).

What is called IC50 is the concentration that inhibits the measured activity by half. A high value points to weaker potency.

The subject of data set [1] is a variety of cancer cell lines. The data set can be described thus: Antiproliferative activity in vitro. The class given is cell-based.
Data set [2] is described as follows: Genotoxicity testing using the Ames test. A general note: In the Ames test, an excess of revertant colonies over the control signals mutagenicity.
In the next data set the test system is A20 syngeneic cells. Put plainly: Compound 1 and anti-PD-1 in the A20 mouse xenograft model. The class given is in vivo. The text has this:
Animals: Female Balb/c Mice, 4-5 weeks old, fed a regular diet
A20 syngeneic cells were collected from flasks and washed once in RPMI 1640 with no additives. […] Animals were implanted with 2×10^5 cells in the right flank. Dosing commenced when tumors were greater than 100 mm^3 (around day 13) and dosing continued for 21 days or until the tumors reached the limit of 2000 mm^3.
Animals started dosing around day 13 when tumors are fully palpable and measured. Dosing continued until tumors begin to show ulceration that requires sacrifice. Tumors were collected before extensive necrosis to run ELISA and Flow analysis.

Data set [3] in a line: Oral bioavailability in animal models. The class given is in vivo.
Data set [4] concerns mouse xenograft tumor models. The data set can be described thus: Antitumor activity in mouse xenograft tumor models. The class given is in vivo. As to conditions: oral or intravenous administration.
The subject of data set [5] is CT26.WT mouse colon carcinoma cells. Put plainly: Compound 1 and anti-PD-1 in the mouse CT26.WT xenograft model. The class given is in vivo. The procedure:
Animals: Female Balb/c Mice, 8 weeks old, fed a high fat diet
CT26.WT cells were collected from flasks and washed once in RPMI 1640 with no additives. […] Mice were grouped once tumors were palpable on day 7 or day 8 and randomized by body weight. Treatment started with antibody and Compound 1 was begun immediately.
Animals were monitored until the dosing commenced and then were measured twice a week during dosing until tumor volume reached protocol limit or ulceration was too severe. Tumor tissue and blood/plasma were collected at the end of the study.

The subject of data set [6] is HDACs (HeLa cell nuclear extracts). The data set can be described thus: HDAC activity assay, Biomol Color de Lys system. In kind it is biochemical. Conditions: 25° C. for 1 hour. On the procedure:
HDAC inhibitory activity was assessed using the Biomol Color de Lys system (AK-500, Biomol, Plymouth Meeting, PA). Briefly, HeLa cell nuclear extracts were used as a source of HDACs. Different concentrations of test compounds were serially diluted in dimethylsulfoxide (DMSO) and added to HeLa cell nuclear extracts in the presence of a colorimetric artificial substrate. Final assay condition contained 50 mM Tris/C1, pH 8.0, 137 mM NaCl, 2.7 mM KCl and 1 mM MgCl2. Reactions were carried in room temperature (25° C.) for 1 hour before addition of developer for termination. Relative enzyme activity was measured in the WALLAC Victor II 1420 microplate reader as fluorescence intensity (excitation: 350-380 nm; emission: 440-460 nm). Data were analyzed using GraphPad Prism (v4.0a) with a sigmoidal dose response curve fitting for IC50 calculation.

Another data set has as its system tumor tissue. Put plainly: Tumor uptake and pharmacodynamics in xenograft tumor bearing mice. The class given is in vivo, mouse. Conditions: oral or intravenous dosing.

Each structure is given as a SMILES string.

As to `COc1ccc(-c2nc(N3CCOCC3)c3sc(CN(C)c4ncc(C(=O)NO)cn4)cc3n2)cn1` [Compound 1, N-Hydroxy-2-(((2-(6-methoxypyridin-3-yl)-4-morpholinothieno[3,2-d]pyrimidin-6-yl)methyl)(methyl)amino)pyrimidine-5-carboxamide], in data set [1], the antiproliferative activity entry was “potent antiproliferative activity”. Also, the “safety profile (genotoxicity, Ames test)” value in data set [2] is “favorable safety profile”. Moreover, in the data set on A20 syngeneic cells (A20, female Balb/c mice, Day 13, relative to Vehicle (Cmp 1) + isotype group, Cpd 1 100 mg/kg PO 5+2−, mAb 100 μg BIW), the “TGI %* (Day 13)” value was found to be 60%. Besides, the “tumor growth inhibition” value in the data set on A20 syngeneic cells (A20 model, Compound 1 100 mg/kg, anti-PD-1 100 ug/mouse) is reported as “significant tumor growth inhibition”. In data set [3], the oral bioavailability result is given as “significant oral bioavailability”. Moreover, the antitumor activity result in data set [4] is recorded as “substantial antitumor activity”. For the same compound, the “inhibition of tumor growth” value in data set [5] (CT26.WT model, Compound 1 50 mg/kg, anti-PD-1 100 ug/mouse) is given as “only small inhibition of tumor growth”. Moreover, the “TGI %* (Day 15)” value in data set [5] (CT26.WT, female Balb/c mice, Day 15, relative to Vehicle (Cmp 1) group, Cpd 1 50 mg/kg PO 5+2−, mAb 100 μg IP BIW) worked out at 3%. The IC50 in data set [6] was less than 0.1 µM. In addition, in the data set on tumor tissue, the “pharmacodynamic activity in tumor tissue” value is reported as “pharmacodynamic activity in tumor tissue” and the “uptake by the tumor tissue” value is “significant uptake by the tumor tissue”.
